Reference: BindingDB's records for doi:10.1074/jbc.M109.089946 (Merck Research Laboratories, 2010)

Tests used:
[1] = biological target: T1, 3-phosphoinositide-dependent protein kinase 1 (Homo sapiens, UniProt O15530); test: TR-Fret Assay
T1 sequence (O15530 whole entry): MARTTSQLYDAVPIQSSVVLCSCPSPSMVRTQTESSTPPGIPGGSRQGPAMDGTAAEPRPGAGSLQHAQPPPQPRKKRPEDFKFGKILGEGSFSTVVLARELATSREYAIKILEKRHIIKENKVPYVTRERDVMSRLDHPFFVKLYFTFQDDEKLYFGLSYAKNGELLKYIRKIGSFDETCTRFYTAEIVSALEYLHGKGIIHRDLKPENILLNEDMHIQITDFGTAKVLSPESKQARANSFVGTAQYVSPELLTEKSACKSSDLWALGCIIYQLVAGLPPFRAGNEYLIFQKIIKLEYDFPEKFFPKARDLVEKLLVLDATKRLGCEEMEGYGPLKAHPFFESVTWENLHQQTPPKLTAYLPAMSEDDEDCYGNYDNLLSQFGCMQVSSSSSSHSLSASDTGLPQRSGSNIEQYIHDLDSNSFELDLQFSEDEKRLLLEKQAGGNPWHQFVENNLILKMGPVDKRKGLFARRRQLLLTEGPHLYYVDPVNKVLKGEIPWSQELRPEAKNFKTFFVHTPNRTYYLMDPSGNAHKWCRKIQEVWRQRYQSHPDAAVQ
Text: 1536-Well TR-Fret uHTS assay PDK1-tide1 peptide substrate.

[2] = biological target: 3-phosphoinositide-dependent protein kinase 1 (Homo sapiens) (UniProt O15530); test: 384-Well TR-Fret assay using AKT-tide peptide substrate.

IC50 [1] [nM] | IC50 [2] [nM] | SMILES
20 | 28 | CC(C)(C)c1nc2c3ccc(F)cc3c3c(=O)[nH]ccc3c2[nH]1 [Jak Inhibitor 1]
11 | 14 | Cc1[nH]nc2c1c(=O)n(CCCN)c1ccc(Br)cc21 [Compound # 1]
18000 | > 30000 | CCCCCNC(=O)O[C@@H]1CC[C@@H]2[C@@H](C(=O)Nc3ccc(N(C)C)cc3)C[C@H]1N2CCC(C)C [Alkaloid 2]
